From US12459910B2, “Mitochondrial therapeutic agents” (ARIZONA BOARD OF REGENTS ON BEHALF OF ARIZONA STATE …, priority 2021, dated 2025)

Legend:
FRDA fibroblasts = assay: Erastin cell survival assay (cellular ATP, ViaLight Plus); type: cell-based; settings: FRDA fibroblasts (GM04078); compounds 12 h before 4 μM erastin; viability by ATP 48 h after erastin; read-out: Erastin challenge cell survival EC50
Source text: (§1) All compounds evaluated for their biological effects were >95% pure. Chemicals employed for the bioassays, including ferrostatin-1 (Fer-1), liproxstatin-1 (Lip-1), RSL3 ((1S,3R)-RSL3), erastin, α-tocopherol, carbonyl cyanide 4-(trifluoromethoxy) phenylhydrazone (FCCP) and galactose, were purchased from Sigma Aldrich. Fluorescent probes, including C11-BODIPY581/591(4,4-difluoro-5-(4-phenyl-1,3-butadienyl)-4-bora-3a,4a-diaza-s-indacene-3-propionic acid), and The Live/Dead® Viability/Cytotoxicity Kit were obtained from Invitrogen (Thermo Fisher Scientific). Luciferase-linked ATPase enzymatic assay (ViaLight Plus proliferation/cytoxicity kit was purchased from Lonza (Walkersville, MD). FRDA lymphocytes (catalogue number GM15850) and FRDA fibroblasts cells (catalogue number GM04078) were obtained from Coriell Cell Repositories (Camden, NJ, USA).
(§2) Lymphocytes were cultured in RPMI-1640 medium (Gibco, Life Technologies, Grand Island, NY) with 15% fetal calf serum, 2 mM glutamine (HyClone, South Logan, UT) and 1% penicillin-streptomycin antibiotic supplement (Cellgro, Manassas, VA). Cells were passaged daily to maintain them in log phase growth and kept at a nominal concentration of 5-10×105 mL. FRDA fibroblasts were cultured in 64% (v/v) Eagle's minimal essential medium (MEM), lacking phenol red with Eagle's balanced salt (EBS) and 25% M199 with EBS (Gibco) supplemented with 10% (v/v) fetal bovine serum albumin (HyClone), 1% penicillin-streptomycin antibiotic mix, 10 μg/mL insulin (Gibco), 10 ng/mL […] (EGF), 10 ng/mL basic fibroblast growth factor (Gibco) and 2 mM glutamine. Cells were grown in 75 cm2 culture flasks and incubated at 37° C. in a humidified atmosphere of 5% CO2 in air. Cells were fed twice weekly and split every third day at a ratio of 1:3. All experiments were conducted with FRDA cells from passages 8-14.
The ability of the test compounds to confer cytoprotection to ferroptosis inducer erastin in FRDA fibroblasts was determined by assessing the depletion of cellular ATP using a commercially available luciferase-linked ATPase enzymatic assay (ViaLight® Plus proliferation/cytotoxicity Kit (Lonza, Walkersville, MD) according to the directions of the manufacturer. Briefly, FRDA fibroblasts (GM04078) were plated in 96-well microtiter plates at a density of 3000 cell/well (50 μL) (Costar, Corning, NY). The plates were incubated at 37° C. for 24 h in an atmosphere having 95% humidity and 5% CO2 to allow attachment of the cells to the culture plates and to allow the cell density reach 60-70% confluency. The next day the test compounds were dissolved in DMSO, diluted to the appropriate concentrations in fresh cell culture media and the cells were then treated with the test compounds (final DMSO concentration was <0.5%). […] Cell viability in each well was determined 48 h after erastin addition by measuring the intracellular ATP content using the ViaLight®-Plus ATP monitoring reagent kit (Lonza, Walkersville, MD) according to the manufacturer's protocol. The ATP concentration was determined by reading luminescence using a luminator (Clarity™ luminescence microplate reader). The percent of viable cells relative to non-treated control was determined for each well. […] Final data output was a calculated EC50 value determined graphically from the dose-response curves using the nonlinear regression curve fit analysis model.

FRDA lymphocytes = assay: RSL3 challenge lipid peroxidation assay (C11-BODIPY581/591, FACS); type: cell-based; settings: Homo sapiens; FRDA lymphocytes (GM15850); compounds overnight, then 2 μM RSL3; C11-BODIPY581/591 flow cytometry; read-out: RSL3 challenge lipid peroxidation inhibition EC50
Source text: as §1, §2
Lipid peroxidation in live cells can be visualized using the oxidation-sensitive fluorescent probe C11-BODIPY581/591. Upon oxidation of this probe, the fluorescence properties shift from a red-emitting form (595 nm) to a green emitting form (520 nm). Changes in fluorescence indirectly reflect the oxidation of unsaturated fatty acids. A quantitative analysis of lipid peroxidation in FRDA lymphocytes, challenged with 2 μM RSL3 in the presence or absence of the test compounds for 2 h was obtained by FACS analysis using the specific dye C11-BODIPY581/591. Briefly, FRDA lymphocytes (5×10^5 cell/mL) were treated with the test compounds (dissolved in DMSO and added to the assay medium at final DMSO concentrations <0.5%) at varying concentrations and incubated at 37° C. overnight in a humidified atmosphere containing 5% CO2 in air. Cells were treated with 2 μM of RSL3 and then incubated for 90 minutes in a humidified atmosphere containing 5% CO2 in air at 37° C. Cells were treated with 2 μM of C11-BODIPY581/591 in phenol red-free RPMI-1640 media and incubated at 37° C. in the dark for 30 min. […] Cells were resuspended in 300 μL of PBS and were analyzed immediately by flow cytometry (C6 Accuri, BD Biosciences, San Jose, CA), to monitor the change in intensity of the C11-BODIPY581/591-green (oxidized) fluorescence signal using 488 nm excitation laser and FL1-H channel 538 nm emission filter. In each analysis, 10,000 events were recorded. […] Final data output was a calculated EC50 value determined graphically from the dose-response curves using the nonlinear regression curve fit analysis model.

| Compound | EC50 (FRDA fibroblasts) [µM] | EC50 (FRDA lymphocytes) [µM] |
| --- | --- | --- |
| CCCCCCCCCCCCc1cc2nc3ccc(=O)cc-3sc2cc1N(C)C [Example 4, 7-(Dimethylamino)-8-dodecyl-3H-phenothiazin-3-one] | 0.015 ± 0.001 | 0.016 ± 0.001 |
| CCCCCCCCCCCCCCCCc1cc2nc3ccc(=O)cc-3sc2cc1N(C)C [Example 5, 7-(Dimethylamino)-8-hexadecyl-3H-phenothiazin-3-one] | 0.022 ± 0.002 | 0.025 ± 0.003 |
| CCCCCCCCCCc1cc2nc3ccc(=O)cc-3sc2cc1N(C)C [Example 1, 8-Decyl-7-(dimethylamino)-3H-phenothiazin-3-One] | 0.01 ± 0.001 | 0.009 ± 0.001 |
| CCCCCCCCCc1cc2nc3ccc(=O)cc-3sc2cc1N(C)C [Example 3, 7-(Dimethylamino)-8-nonyl-3H-phenothiazin-3-one] | 0.011 ± 0.001 | 0.012 ± 0.001 |
| CCCCCCCCc1cc2nc3ccc(=O)cc-3sc2cc1N(C)C [Example 2, 7-(Dimethylamino)-8-octyl-3H-phenothiazin-3-one] | 0.015 ± 0.003 | 0.014 ± 0.001 |
